Laboratory results reported in PMC12115180 (Pharmaceuticals, 2025).
Where two headings read alike, the source gives them in different places.

What was measured:
[1] = Rabbit, average of n = 6; 0.5% 50 μL, 250 μg; cited from earlier work
[2] = Non-GLP tox studies in rabbits, topical application; type: in vivo; conditions: twice daily topical application of 1% rifampicin, 3-month dosing (Unpublished data)
[3] = tested on: oxygen-induced retinopathy rat models; experiment: Oxygen-induced retinopathy rat model, capillary count in histology sections; type: in vivo, Sprague–Dawley rat; conditions: SC injection 20 mg/kg once a day P15–P19, histology P20
Excerpt: Oxygen-induced retinopathy rat models were produced according to the protocols of Yanni et al. (2010). Sprague–Dawley rat babies (and their nursing mothers) were exposed to a cycling oxygen environment (80% and 21%, about one day for each) for 15 days after starting from the day of birth (Day 0). On Day 15 (P15), the animals were moved to room air. […] On P20, all of the animals were euthanized by CO2 gas, and the retina was visualized as histology sections.

[4] = Retinal delivery of rifampicin in rat after topical 0.25% eye drops; type: in vivo, Sprague-Dawley rats
Method: A single drop contained 5 μL of the above-described formulation, and the application of each drug drop was carried out at intervals of 30 min. After the eye drop application, euthanasia was performed using CO2 gas, and the retina was excised from each rat under a dissection microscope. In addition, “non-treated” negative controls were used, and the retina was excised from two rats without performing any treatments on the rats. The retina was placed in a 1.5 mL microcentrifuge tube (1 retina/tube) and was fully washed with DPBS. After completion of the washing procedures, the retinal tissues in the microcentrifuge tube were frozen in dry ice and then preserved for quantification by LC/MS analysis.

[5] = design: method as in earlier work; conditions: cited from earlier work
[6] = tested on: mouse laser-induced CNV model; experiment: Mouse laser-induced CNV model
[7] = Mouse sub-retina/sclera complex pharmacokinetics after SC injection; type: in vivo, C57BL/6J mice; conditions: single SC injection 0.7 mg/kg
Method: This effective dosage and administration route was evaluated in dose escalation studies by using the mouse laser-induced CNV model. The AUC reflects the exposure to the drug after administration of a dose of the drug and is expressed in hour · ng/mg tissue. The AUC is dependent on the dose administered as well as the rate of elimination of the drug from the tissue. The AUC is directly proportional to the dose when the drug follows linear kinetics, and AUC is inversely proportional to the clearance of the drug. In 1 h, 3 h, 6 h, and 18 h after the SC injection, eyeballs were extracted. Tissue from the retina, the sclera, and the sub-retina complex were isolated and extracted. These tissues were immediately frozen in liquid nitrogen. The tissue was subjected to LC/MS analysis for quantitation. The detection limit was 0.25 ng/g tissue.

[8] = Rat retina pharmacokinetics, single topical 0.25% rifampicin eye drop; type: in vivo, Sprague–Dawley rats; conditions: male, Sprague-Dawley, topical or ocular, 15 μL of 0.25% rifampicin eye drop
Method: At time points of 1 h, 3 h, and 7 h after the application of the eye drops, euthanasia was performed using CO2 gas, and the retinal tissues were excised from the rats under a dissection microscope. In addition, “non-treated” negative controls were used, and the retina was excised from one rat without performing any treatments on the rat. The retina was placed in a 1.5-mL microcentrifuge tube (1 retina/tube) and was fully washed with DPBS. After completion of the washing procedures, the retinal tissues in the microcentrifuge tube were frozen in dry ice and then preserved for quantification by LC/MS analysis.

[9] = design: method as in PMID 17995946; conditions: typical six-month course for tuberculosis; cited from earlier work
[10] = tested on: patients with Central Serous Chorioretinopathy (CSC); conditions: cited from earlier work
[11] = design: method as in WO 2023/234423 A1; conditions: mouse, SC; ref WO 2023/234423 A1; cited from earlier work
[12] = Human peak plasma exposure (package insert); type: in vivo; conditions: 600 mg intravenous dose, calculated from package insert values
HUVEC = conditions: in vitro; cited from earlier work

Compound	Drug Amount Detected in Retina [1]	Toxicity on repeated topical application [2]	Number of new capillaries on the retinal surface vs vehicle control [3]	Drug Amount Detected in Retina ([4]; topical 0.25% 3 drops (15 μL, 37.5 μg))	Drug Amount Detected in Retina ([4]; topical 0.25% 10 drops (50 μL, 125 μg))	Peak plasma exposure ([5]; 600 mg intravenous dose) [µg/mL]	Peak plasma exposure ([5]; 600 mg oral dose) [µg/mL]	Inhibition of neovascularization in CNV model ([6]; SC injection 0.7 mg/kg once daily, 7 days after laser)	Neovascularization inhibition level compared with intravitreal aflibercept ([6]; SC injections at doses exceeding 0.7 mg/kg)	Minimum effective dose for inhibiting neovascularization in subretinal tissues ([6]; SC, dose escalation studies) [mg/kg]	Effective dosage in CNV model, times less than that of bacterial inhibition ([6]; vs 20 mg/kg effective systemic dosage for bacterial infection)	Peak concentration in mouse sub-retinal and scleral complex [7]	Peak concentration in mouse sub-retinal and scleral complex, calculated molar [7]	Tmax [8] [h]	Patients with hepatotoxicity [9]	Effect on CSC ([10]; 600 mg daily oral dose)	Effect on visual acuity and macular thickness in CSC ([10]; daily oral dosage of 300 mg)	Share of rifampicin in sub-retina and sclera complex delivered to the sub-retina [11]	Estimated serum concentration corresponding to peak plasma exposure [12] [µM]	Concentration required for statistically significant inhibition of HUVEC tube formation and proliferation (HUVEC)
C[C@@H]1C[C@H]2[C@@H]3CCC4=CC(=O)C=C[C@]4(C)[C@@]3(F)[C@@H](O)C[C@]2(C)[C@@]1(O)C(=O)CO [Dexamethasone]	33 ng/ 1 g of retinal tissues (Rabbit, average of n = 6)	–	–	–	–	–	–	–	–	–	–	–	–	–	–	–	–	–	–	–
CO[C@H]1/C=C/O[C@@]2(C)Oc3c(C)c(O)c4c(O)c(c(/C=N/N5CCN(C)CC5)c(O)c4c3C2=O)NC(=O)/C(C)=C\C=C\[C@H](C)[C@H](O)[C@@H](C)[C@@H](O)[C@@H](C)[C@H](OC(C)=O)[C@@H]1C [Rifampicin]	–	no toxicity	fewer than that in the control group	1280 ng/ 1 g of retinal tissues (Rat) SE: 394.0348	2939 ng/ 1 g of retinal tissues (Rat) SE: 50.54	9 to 17	4 to 32	significantly inhibited neovascularization	equivalent to that achieved with intravitreal injection of aflibercept	0.7	approximately 30 times	approximately 0.03 ng/mg tissue weight	roughly 0.04 µM	~1	up to 28%	improvements in CSC	improved visual acuity and macular thickness	approximately 70%	12 to 23	approximately 30 µM
